Source: patent US4933363A, “Method for effecting systemic delivery of delta-9-tetrahydrocannabinol” (priority 1988, dated 1990)

Assays:
[1] = Bioavailability of parent delta-9-tetrahydrocannabinol from a suppository (GC/MS of blood samples); type: in vivo, monkey; settings: 10 mg/suppository
Method: The parent drug delta-9-tetrahydrocannabinol was formulated in a suppository form at 10 mg/suppository using Witepsol-H15 as the base. One suppository was administered to a monkey and blood samples collected at the same time intervals as shown under Examples II-V. GC/MS analysis of these samples was carried out for delta-9-tetrahydrocannabinol and its metabolite.

[2] = cited from earlier work
[3] = various suppository formulations; cited from earlier work
[4] = 4×4 Latin square comparison of i.v., oral and suppository administration (GC/MS plasma levels); settings: for Mean delta-9-tetrahydrocannabinol level in plasma: four monkeys; for concentration at 0.1 h / concentration at 0.25 h / concentration at 0.5 h / concentration at 1 h / concentration at 1.5 h / concentration at 2 h / concentration at 3 h / concentration at 4 h / concentration at 6 h / concentration at 8 h / concentration at 24 h: monkey, plasma
[5] = Suppository of N-methyl glucamine salt vs free hemisuccinate ester (GC/MS blood levels); settings: equivalent to 10 mg parent drug per suppository, monkeys
[6] = Witepsol-H15, one monkey, GC/MS, all time points
[7] = i.v., 0.5 mg/kg parent equivalent, 0.0 hr

CCCCCc1cc(O)c2c(c1)OC(C)(C)[C@@H]1CCC(C)=C[C@@H]21 [delta-9-tetrahydrocannabinol]
bioavailability from a suppository dosage form ([1]; Witepsol-H15, monkey): lack of bioavailability
delta-9-tetrahydrocannabinol detected in blood samples [1, 6]: Neither delta-9-tetrahydrocannabinol nor its metabolite was detected
metabolite (11-nor-delta-9-tetrahydrocannabinol-9-COOH) detected in blood samples [1, 6]: Neither delta-9-tetrahydrocannabinol nor its metabolite was detected
bioavailability via the oral routes ([2]; oral (e.g. chocolate cookies, sesame oil capsules)): quite low
effect of fasting or food deprivation on absorption from the gastrointestinal tract ([2]; oral, fasting or food deprivation): decreased by fasting or food deprivation
interpatient variability in absorption ([2]; oral, patients): extreme interpatient variability in absorption
oral absorption ([2]; oral): slow and erratic
absorption and bioavailability via the rectal route [3]: no absorption, consequently no bioavailability achieved via the rectal route
Mean delta-9-tetrahydrocannabinol level in plasma [4, 7]: 0.0 ng/mL
concentration at 0.1 h ([4]; iv, 0.5 mg/kg): 1680 ng/mL
concentration at 0.25 h ([4]; iv, 0.5 mg/kg): 335 ng/mL
concentration at 0.5 h ([4]; iv, 0.5 mg/kg): 170 ng/mL
concentration at 1 h ([4]; iv, 0.5 mg/kg): 102 ng/mL
concentration at 1.5 h ([4]; iv, 0.5 mg/kg): 67.3 ng/mL
concentration at 2 h ([4]; iv, 0.5 mg/kg): 55.8 ng/mL
concentration at 3 h ([4]; iv, 0.5 mg/kg): 34 ng/mL
concentration at 4 h ([4]; iv, 0.5 mg/kg): 22.8 ng/mL
concentration at 6 h ([4]; iv, 0.5 mg/kg): 29 ng/mL
concentration at 8 h ([4]; iv, 0.5 mg/kg): 17.3 ng/mL
concentration at 24 h ([4]; iv, 0.5 mg/kg): 2.5 ng/mL
concentration at 3 h ([4]; po, 10 mg): 0.5 ng/mL
concentration at 4 h ([4]; po, 10 mg): 1.3 ng/mL
concentration at 6 h ([4]; po, 10 mg): 2.3 ng/mL
concentration at 8 h ([4]; po, 10 mg): 4.3 ng/mL
concentration at 24 h ([4]; po, 10 mg): 0.8 ng/mL
Mean delta-9-tetrahydrocannabinol level in plasma ([4]; oral, 10 mg in sesame oil, 0.0 hr): 0.0 ng/mL
Mean delta-9-tetrahydrocannabinol level in plasma ([4]; oral, 10 mg in sesame oil, 0.1 hr): 0.0 ng/mL
Mean delta-9-tetrahydrocannabinol level in plasma ([4]; oral, 10 mg in sesame oil, 0.25 hr): 0.0 ng/mL
Mean delta-9-tetrahydrocannabinol level in plasma ([4]; oral, 10 mg in sesame oil, 0.5 hr): 0.0 ng/mL
Mean delta-9-tetrahydrocannabinol level in plasma ([4]; oral, 10 mg in sesame oil, 1.0 hr): 0.0 ng/mL
Mean delta-9-tetrahydrocannabinol level in plasma ([4]; oral, 10 mg in sesame oil, 1.5 hr): 0.0 ng/mL
Mean delta-9-tetrahydrocannabinol level in plasma ([4]; oral, 10 mg in sesame oil, 2.0 hr): 0.0 ng/mL

CCCCCc1cc(OC(=O)CCC(=O)O)c2c(c1)OC(C)(C)[C@@H]1CCC(C)=C[C@@H]21 [Delta-9-tetrahydrocannabinol hemisuccinate ester]
blood levels, free ester vs N-methyl glucamine salt suppository [5]: virtually equivalent
equivalency of intravenous dosage of ester to intravenous dosage of parent ([4]; i.v., 0.5 mg/kg parent drug equivalent, monkeys): equivalency of the intravenous dosage of the hemisuccinate ester of delta-9-tetrahydrocannabinol to the intravenous dosage of the parent delta-9-tetrahydrocannabinol
Mean delta-9-tetrahydrocannabinol level in plasma [4, 7]: 0.0 ng/mL
concentration at 0.25 h [4]: 14.8 ng/mL
concentration at 0.5 h [4]: 33.5 ng/mL
concentration at 1 h [4]: 46 ng/mL
concentration at 1.5 h [4]: 53.5 ng/mL
concentration at 2 h [4]: 53.3 ng/mL
concentration at 3 h [4]: 50 ng/mL
concentration at 4 h [4]: 38 ng/mL
concentration at 6 h [4]: 18.5 ng/mL
concentration at 8 h [4]: 12.8 ng/mL
concentration at 24 h [4]: 1.3 ng/mL
concentration at 0.1 h ([4]; iv, 0.5 mg/kg): 2060 ng/mL
concentration at 0.25 h ([4]; iv, 0.5 mg/kg): 669 ng/mL
concentration at 0.5 h ([4]; iv, 0.5 mg/kg): 251 ng/mL
concentration at 1 h ([4]; iv, 0.5 mg/kg): 95.8 ng/mL
concentration at 1.5 h ([4]; iv, 0.5 mg/kg): 65.3 ng/mL
concentration at 2 h ([4]; iv, 0.5 mg/kg): 42.5 ng/mL
concentration at 3 h ([4]; iv, 0.5 mg/kg): 26.3 ng/mL
concentration at 4 h ([4]; iv, 0.5 mg/kg): 18.5 ng/mL
concentration at 6 h ([4]; iv, 0.5 mg/kg): 13 ng/mL
concentration at 8 h ([4]; iv, 0.5 mg/kg): 8 ng/mL
concentration at 24 h ([4]; iv, 0.5 mg/kg): 2.5 ng/mL
delivery of delta-9-tetrahydrocannabinol to the blood vs oral sesame seed oil formulation of parent ([4]; suppository vs oral 10 mg, monkeys): extraordinary superiority
Mean delta-9-tetrahydrocannabinol level in plasma ([4]; suppository, 0.0 hr): 0.0 ng/mL
Mean delta-9-tetrahydrocannabinol level in plasma ([4]; suppository, 0.1 hr): 0.0 ng/mL
